Target: T1, Gag-Pol polyprotein [588-1027]/[588-1147] (Human immunodeficiency virus 1, UniProt P04585)
T1 construct: 588-1027; 588-1147
Assay: HIV-1 RT Assay
Settings: pH 8.2

| SMILES | IC50 [µM] |
| --- | --- |
| CCc1cc(C(O)CN2C(=O)c3ccccc3C2=O)c(O)nc1C (stereo not drawn) [2-[2-(5-ethyl-6-methyl-2-oxo-1,2-dihydropyridin-3-yl)-2-hydroxyethyl]-2,3-dihydro-1H-isoindole-1,3-dione] | > 300 |
| CCc1cc(C(=O)CN2C(=O)c3ccccc3C2=O)c(OC)nc1C [2-[2-(5-ethyl-2-methoxy-6-methylpyridin-3-yl)-2-oxoethyl]-2,3-dihydro-1H-isoindole-1,3-dione] | > 300 |
| CCc1cc(CCCN2C(=O)c3ccccc3C2=O)c(OC)nc1C [2-[3-(5-ethyl-2-methoxy-6-methylpyridin-3-yl)propyl]-2,3-dihydro-1H-isoindole-1,3-dione] | > 300 |
| CCc1cc(CCN2C(=O)c3ccccc3C2=O)c(OC)nc1C [2-[2-(5-ethyl-2-methoxy-6-methylpyridin-3-yl)ethyl]-2,3-dihydro-1H-isoindole-1,3-dione] | 6.2 |
| CCc1cc(CN2C(=O)c3ccccc3C2=O)c(OC)nc1C [2-[(5-ethyl-2-methoxy-6-methylpyridin-3-yl)methyl]-2,3-dihydro-1H-isoindole-1,3-dione] | 16 |
| O=C1c2ccccc2C(=O)N1CCc1cccnc1O [2-[2-(2-oxo-1,2-dihydropyridin-3-yl)ethyl]-2,3-dihydro-1H-isoindole-1,3-dione] | > 300 |
| CCc1cc(C(=O)CN2C(=O)c3ccccc3C2=O)c(=O)[nH]c1C [2-[2-(5-ethyl-6-methyl-2-oxo-1,2-dihydropyridin-3-yl)-2-oxoethyl]-2,3-dihydro-1H-isoindole-1,3-dione] | > 300 |
| CCc1cc(C(O)CN2C(=O)c3ccccc3C2=O)c(OC)nc1C (stereo not drawn) [2-[2-(5-ethyl-2-methoxy-6-methylpyridin-3-yl)-2-hydroxyethyl]-2,3-dihydro-1H-isoindole-1,3-dione] | > 300 |

Source: BindingDB's records for doi:10.1021/jm00099a006 (Merck Research Laboratories, 1992)
